# Earlier results as cited in US10736937B2 (priority 2014, dated 2020).
# Tested on: Streptococcus pneumoniae
# Settings: mucosal administration; co-administrated with the pathogen or 2 to 24 h before bacterial challenge
substance,measurement,value
flagellin,protection against Streptococcus pneumoniae lung infection,protect
